Results: US9375459B2, “Cyclic peptides with an anti-neoplasic and anti-angiogenic activity” (priority 2011, dated 2016)
“Also recorded” adds a separate entry of the source. Where a SMILES comes first, the peptide text is derived from it.

Test system: human tumor cells
Experiment: Cytotoxic activity screening of peptide library on human tumor cell lines, SRB method
Type: cell-based
Details: for Cytotoxic activity in vitro: SRB method, cytotoxic = dose-dependent 50% inhibition of proliferation, GI50 below 100 μM in at least one cell line; for cytotoxic / biological activity in vitro on tumor cells: peptide library screening
Procedure: Negative control cells were cultured on a volume of vehicle equal to that of the experimental samples. An “x-y” curve (dose-response) was established with the percent of surviving cells, compared in respect to the negative control cells, and the following parameters were estimated: 50% growth inhibition (GI50); Total growth inhibition (TGI); and the lethal concentration 50 (LC50), that is the concentration causing the 50% of cell death (Boyd M R, Paull K D, and Rubinstein L R (1992) “Data display and analysis strategies for the NCI Disease Oriented In-Vitro Antitumor Drug Screen, in Cytotoxic Anticancer Drugs: Models and Concept for Drug Discovery and Development” (Baleriote F A, Corbett T H and Baker L H eds) pp 11-34, Kluwer Academia Publishers, Boston).
Were considered as cytotoxic peptides all those peptides being able of inhibiting 50% of the cellular proliferation, in a dose-dependent manner, and showing GI50 values below 100 μM, at least in one of the cell lines studied. The human tumor cell lines used were: HEp-2 (larynx carcinoma), A549 (lung epithelial adenocarcinoma), M14 (melanoma), Colo 205 (colon adenocarcinoma), Ls174T (colon adenocarcinoma), LnCAP (prostate carcinoma), PC-3 (prostate carcinoma) and H 125 (non-small cell lung adenocarcinoma). Represented are primary sequences for the designed peptides, the code used for its generation and their respective cytotoxic capacity on human tumor cells.

| SMILES | Cytotoxic activity in vitro | cytotoxic / biological activity in vitro on tumor cells |
| --- | --- | --- |
| CC[C@H](C)[C@H](NC(=O)[C@H](CCCNC(=N)N)NC(=O)[C@H](CCC(N)=O)NC(=O)[C@H](CC(N)=O)NC(=O)[C@H](C)NC(=O)[C@@H](NC(=O)[C@H](Cc1ccc(O)cc1)NC(=O)CNC(=O)[C@@H](N)CO)[C@@H](C)O)C(=O)N[C@@H](CC(N)=O)C(=O)N[C@@H](CC(C)C)C(=O)N[C@@H](CC(N)=O)C(=O)N[C@@H](CCC(=O)O)C(=O)N[C@@H](CCCCN)C(=O)N[C@@H](CO)C(=O)N[C@@H](Cc1ccccc1)C(=O)N[C@@H](CO)C(=O)N[C@@H](CC(=O)O)C(=O)N[C@H](C(=O)NCC(N)=O)C(C)C [Peptide A07P42] (H-SGYTANQRINLNEKSFSDVG-NH2) | − (symbol − indicates its absence, following criteria established in Example 2) | – |
| CC(C)C[C@H](NC(=O)[C@@H](NC(=O)[C@H](CC(=O)O)NC(=O)[C@H](CC(N)=O)NC(=O)CNC(=O)[C@H](C)NC(=O)CNC(=O)CNC(=O)[C@H](CCCCN)NC(=O)[C@H](CC(C)C)NC(=O)[C@@H](NC(=O)[C@H](CC(N)=O)NC(=O)[C@H](CC(N)=O)NC(=O)[C@H](C)N)C(C)C)C(C)C)C(=O)N[C@@H](Cc1ccccc1)C(=O)NCC(=O)NCC(=O)NCC(=O)NCC(=O)N[C@@H](C)C(N)=O [Peptide A07P43] (H-ANNVLKGGAGNDVLFGGGGA-NH2) | − (symbol − indicates its absence, following criteria established in Example 2) | – |
| CC[C@H](C)[C@H](NC(=O)[C@H](C)NC(=O)[C@H](CC(N)=O)NC(=O)[C@H](CCC(=O)O)NC(=O)[C@@H](NC(=O)[C@@H](NC(=O)[C@@H](NC(=O)CNC(=O)[C@H](C)NC(=O)[C@H](C)NC(=O)[C@@H](NC(=O)[C@H](CO)NC(=O)[C@@H](NC(=O)[C@H](CC(N)=O)NC(=O)CNC(=O)[C@H](CCCCN)NC(=O)[C@H](CC(C)C)NC(=O)CN)C(C)C)[C@@H](C)CC)C(C)C)[C@@H](C)O)[C@@H](C)CC)C(=O)NCC(=O)NCC(N)=O [Peptide A07P44] (H-GLKGNVSIAAGVTIENAIGG-NH2) | − (symbol − indicates its absence, following criteria established in Example 2) | – |
| CC[C@H](C)[C@H](NC(=O)[C@H](C)NC(=O)[C@H](CC(N)=O)NC(=O)[C@H](CCC(=O)O)NC(=O)[C@@H](NC(=O)[C@@H](NC(=O)[C@@H](NC(=O)CN)C(C)C)[C@@H](C)O)[C@@H](C)CC)C(=O)NCC(=O)NCC(=O)N[C@@H](CO)C(=O)NCC(=O)N[C@@H](CC(N)=O)C(=O)N[C@@H](CC(=O)O)C(=O)N[C@H](C(=O)N[C@H](C(=O)N[C@H](C(=O)NCC(=O)N[C@@H](CC(N)=O)C(=O)N[C@@H](C)C(N)=O)C(C)C)[C@@H](C)CC)C(C)C [Peptide A07P45] (H-GVTIENAIGGSGNDVIVGNA-NH2) | − (symbol − indicates its absence, following criteria established in Example 2) | – |
| CC(C)C[C@H](NC(=O)[C@H](CCC(=O)O)NC(=O)[C@H](CC(=O)O)NC(=O)[C@H](C)NC(=O)CNC(=O)CNC(=O)CNC(=O)CNC(=O)[C@H](Cc1ccccc1)NC(=O)[C@H](CC(C)C)NC(=O)[C@@H](NC(=O)[C@H](CC(=O)O)NC(=O)[C@@H](N)CC(N)=O)C(C)C)C(=O)N[C@@H](Cc1c[nH]c2ccccc12)C(=O)NCC(=O)NCC(=O)N[C@@H](C)C(=O)NCC(=O)N[C@@H](CCCCN)C(=O)N[C@@H](CC(=O)O)C(N)=O [Peptide A07P46] (H-NDVLFGGGGADELWGGAGKD-NH2) | − (symbol − indicates its absence, following criteria established in Example 2) | – |
| CC[C@H](C)[C@H](NC(=O)[C@H](CO)NC(=O)[C@@H](NC(=O)[C@H](CC(N)=O)NC(=O)CNC(=O)[C@H](CCCCN)NC(=O)[C@H](CC(C)C)NC(=O)CNC(=O)CNC(=O)[C@@H](NC(=O)[C@H](CC(=O)O)NC(=O)[C@H](CO)NC(=O)[C@H](Cc1ccccc1)NC(=O)[C@H](CO)NC(=O)[C@H](CCCCN)NC(=O)[C@H](CCC(=O)O)NC(=O)[C@H](CC(N)=O)NC(=O)[C@@H](N)CC(C)C)C(C)C)C(C)C)C(=O)N[C@@H](C)C(=O)N[C@@H](C)C(N)=O [Peptide A07P47] (H-LNEKSFSDVGGLKGNVSIAA-NH2) | − (symbol − indicates its absence, following criteria established in Example 2) | – |
| C[C@H](NC(=O)[C@H](C)NC(=O)[C@H](Cc1ccc(O)cc1)NC(=O)[C@H](Cc1c[nH]cn1)NC(=O)CNC(=O)CNC(=O)[C@H](CC(N)=O)NC(=O)[C@H](CC(=O)O)NC(=O)CNC(=O)CNC(=O)[C@@H](NC(=O)[C@H](CC(N)=O)NC(=O)[C@@H](NC(=O)[C@H](CCC(=O)O)NC(=O)[C@H](CO)NC(=O)[C@H](Cc1c[nH]c2ccccc12)NC(=O)[C@H](Cc1ccc(O)cc1)NC(=O)[C@@H](N)CO)[C@@H](C)O)[C@@H](C)O)C(=O)N[C@@H](C)C(=O)N1CCC[C@H]1C(N)=O [Peptide D06P91] (H-SYWSETNTGGDNGGHYAAAP-NH2) | − (symbol − indicates its absence, following criteria established in Example 2) | – |
| CC[C@H](C)[C@H](NC(=O)[C@H](C)NC(=O)[C@H](C)NC(=O)[C@@H](NC(=O)[C@H](CC(=O)O)NC(=O)[C@H](CC(=O)O)NC(=O)[C@H](CC(C)C)NC(=O)[C@H](CC(C)C)NC(=O)[C@@H]1CCCN1C(=O)[C@H](C)NC(=O)[C@H](C)NC(=O)[C@H](C)NC(=O)[C@H](Cc1ccc(O)cc1)NC(=O)[C@H](Cc1c[nH]cn1)NC(=O)CNC(=O)CNC(=O)[C@H](CC(N)=O)NC(=O)[C@@H](N)CC(=O)O)[C@@H](C)CC)C(=O)N[C@@H](CCC(N)=O)C(=O)N[C@@H](Cc1c[nH]cn1)C(N)=O [Peptide E07P01] (H-DNGGHYAAAPLLDDIAAIQH-NH2) | − (symbol − indicates its absence, following criteria established in Example 2) | – |
| CC[C@H](C)[C@H](NC(=O)[C@H](CC(N)=O)NC(=O)[C@@H](N)C(C)C)C(=O)NCC(=O)NCC(=O)N[C@@H](Cc1c[nH]cn1)C(=O)N[C@@H](CCC(N)=O)C(=O)N[C@@H](C)C(=O)N1CCC[C@H]1C(=O)N[C@@H](CC(=O)O)C(=O)N[C@@H](Cc1ccccc1)C(=O)N[C@@H](CC(C)C)C(=O)N[C@H](C(=O)N[C@@H](CCCCN)C(=O)N[C@H](C(=O)N[C@H](C(=O)NCC(=O)N[C@@H](CCC(N)=O)C(=O)N[C@H](C(=O)N[C@@H](CC(=O)O)C(N)=O)C(C)C)C(C)C)[C@@H](C)CC)C(C)C [Peptide E07P02] (H-VNIGGHQAPDFLVKIVGQVD-NH2) | − (symbol − indicates its absence, following criteria established in Example 2) | – |
| CC[C@H](C)[C@H](NC(=O)[C@H](Cc1ccccc1)NC(=O)[C@H](CC(=O)O)NC(=O)[C@@H](NC(=O)[C@H](C)NC(=O)[C@@H](NC(=O)[C@H](CC(=O)O)NC(=O)[C@@H](NC(=O)[C@H](CCC(N)=O)NC(=O)CNC(=O)[C@@H](NC(=O)[C@@H](NC(=O)[C@H](CCCCN)NC(=O)[C@@H](NC(=O)[C@H](CC(C)C)NC(=O)[C@@H](N)Cc1ccccc1)C(C)C)[C@@H](C)CC)C(C)C)C(C)C)C(C)C)[C@@H](C)O)C(=O)N[C@H](C(N)=O)C(C)C [Peptide E07P03, FLVKIVGQVDVATDFIV- amide] (H-FLVKIVGQVDVATDFIV-NH2) | − (symbol − indicates its absence, following criteria established in Example 2) | – |
| CC[C@H](C)[C@H](NC(=O)[C@H](C)NC(=O)[C@H](C)NC(=O)[C@@H](NC(=O)[C@H](CC(=O)O)NC(=O)[C@H](CC(=O)O)NC(=O)[C@H](CC(C)C)NC(=O)[C@@H](N)CC(C)C)[C@@H](C)CC)C(=O)N[C@@H](CCC(N)=O)C(=O)N[C@@H](Cc1c[nH]cn1)C(=O)N[C@@H](CC(C)C)C(=O)N[C@@H](Cc1ccc(O)cc1)C(=O)NCC(=O)N[C@@H](C)C(=O)N[C@@H](CC(N)=O)C(=O)N1CCC[C@H]1C(=O)N[C@@H](CO)C(=O)N[C@H](C(=O)N[C@@H](CCCNC(=N)N)C(=O)N[C@H](C(N)=O)[C@@H](C)O)[C@@H](C)O [Peptide E07P05] (H-LLDDIAAIQHLYGANPSTRT-NH2) | − (symbol − indicates its absence, following criteria established in Example 2) | – |
| CC(C)C[C@H](N)C(=O)N[C@@H](Cc1ccc(O)cc1)C(=O)NCC(=O)N[C@@H](C)C(=O)N[C@@H](CC(N)=O)C(=O)N1CCC[C@H]1C(=O)N[C@@H](CO)C(=O)N[C@H](C(=O)N[C@@H](CCCNC(=N)N)C(=O)N[C@H](C(=O)NCC(=O)N[C@@H](CC(=O)O)C(=O)N[C@H](C(=O)N[C@H](C(=O)N[C@@H](Cc1ccc(O)cc1)C(=O)NCC(=O)N[C@@H](Cc1ccccc1)C(=O)N[C@@H](CC(N)=O)C(=O)N[C@@H](CO)C(=O)N[C@@H](CC(N)=O)C(N)=O)C(C)C)[C@@H](C)O)[C@@H](C)O)[C@@H](C)O [Peptide E07P06] (H-LYGANPSTRTGDTVYGFNSN-NH2) | − (symbol − indicates its absence, following criteria established in Example 2) | no cytotoxic activity |
| CC[C@H](C)[C@H](NC(=O)[C@@H](NC(=O)[C@H](CCCCN)NC(=O)[C@H](CCC(N)=O)NC(=O)[C@H](CO)NC(=O)[C@H](CC(N)=O)NC(=O)[C@H](CO)NC(=O)[C@@H](NC(=O)[C@@H](NC(=O)[C@H](CO)NC(=O)[C@H](CC(C)C)NC(=O)[C@H](Cc1ccccc1)NC(=O)[C@H](CC(=O)O)NC(=O)[C@H](CCCNC(=N)N)NC(=O)CNC(=O)[C@@H](N)[C@@H](C)O)[C@@H](C)O)[C@@H](C)O)C(C)C)C(=O)N[C@@H](Cc1ccccc1)C(=O)N[C@@H](C)C(=O)N[C@@H](C)C(=O)N[C@@H](Cc1c[nH]c2ccccc12)C(N)=O [Peptide F07P16] (H-TGRDFLSTTSNSQKVIFAAW-NH2) | − (symbol − indicates its absence, following criteria established in Example 2) | no cytotoxic activity; also recorded: inactive |
